Data published in patent US7226761B2, “Manufacture of five-carbon sugars and sugar alcohols” (Danisco Sweeteners Oy, priority 1992, dated 2007).

Key:
[1] = test system: TKL1 deficient strain H1764; assay: Growth of TKL1 deficient strain on galactose plates containing D-xylulose; format: cell-based, Saccharomyces cerevisiae; settings: 2% galactose plates
Procedure: The genomic library of Z. rouxii was transformed into the TKL1 deficient strain of Saccharomyces cerevisiae (H1764, see example 12) and 10,000 independent clones were obtained. We have observed that the TKL1 deficient strain H1764 is unable to grow on 2% galactose plates containing 0.3% or higher concentrations of D-xylulose (probably due to toxic concentrations of 5-carbon sugar phosphates accumulating). The independent clones were plated with 0.5% D-xylulose (synthetic complete medium with 2% galactose, 0.5% xylulose and 3% xylose lacking leucine for selection of the library plasmid) and screened for complementation of growth on these plates.

[2] = test system: strains H1915 and H1916; settings: approximately 0.5 mM H2O2, 1.5 h; both strains
Procedure: Strains H1915 and H1916 were cultivated to logarithmic growth phase. The cells were collected and suspended into synthetic complete medium lacking histidine and uracil to an average density of OD600 20. Glucose was added to a final concentration of 20 g/l and a sample was taken immediately. The cells were incubated in a 30° C. shaker (250 rpm) for 2.5 h and the first sample was taken. Then H2O2 was added to a concentration of approximately 0.5 mM and incubation continued for an additional 1.5 h, when the second sample was taken. The OD600 was measured, cells were removed by centrifugation, and the growth medium samples were analyzed by HPLC (Waters device, Aminex HPX-87H Ion Exclusion Column, see example 17).

O=C(CO)[C@@H](O)[C@H](O)CO [D-xylulose]
D-xylulose concentration at which the strain is unable to grow [1]: ≥ 0.3%

OO [hydrogen peroxide]
increase of total polyol and pentose production [2]: 2 fold
